Test results from article PMC8267472, “The Effect of Cream and Gel Vehicles on the Percutaneous Absorption and Skin Retention of a New Eugenol Derivative With Antioxidant Activity” (Frontiers in Pharmacology, 2021).
Like-named read-outs stand apart in the source and are kept apart here.

Key:
[1] = shake-flask method; ref Makuch et al., 2020; cited from earlier work
[2] = DPPH radical reduction by ethanolic solutions of eugenol and EDChA (IC50); format: biochemical; details: ethanolic solution, 10 min incubation, 517 nm; read-out: IC50, concentration reducing 50% of free radicals (DPPH method)
Experimental: Antioxidative activity of ethanolic solutions of eugenol and its new derivative (EDChA) were determined using spectrophotometric method based on DPPH radical reduction as described elsewhere ([Brand-Williams et al., 1995]; [Makuch et al., 2020]). The absorbance at the wavelength of 517 nm was measured using Spectroquant Pharo 300 (Merck, Germany). The antioxidant activity of eugenol and its ester was measured as follows: to 2,850 µl of DPPH ethanolic solution (absorbance at 517 nm 1.00 ± 0.02) 150 µl of the sample (containing one of the tested compound at a concentration of 1.000 w/w) was added. The concentration of the analyzed sample in DPPH ethanolic solution was 0.050% w/w. The tube was wrapped in aluminum foil, sealed with a stopper and incubated for 10 min at room temperature. Each sample was prepared in triplicate. After incubation, spectrophotometric measurements were carried out at 517 nm. Solvent applied to obtain extracts was used as reference. The results were expressed as radical scavenging activity (RSA) ([Nowak et al., 2019]). For each studied compound calibration curve of RSA vs. concentration (0.006–50.000% w/v) was prepared to calculate IC50, i.e. the concentration of the compound reducing 50% of free radicals. The concentration range of the analyzed samples in DPPH ethanolic solution were 0.0003–2.5000% w/v.

[3] = design: method as in Floegel et al., 2011; details: literature value; ref Floegel et al., 2011; read-out: IC50 described in the literature (DPPH); cited from earlier work
[4] = In vitro skin permeation in Franz diffusion cell; format: in vitro ADME, porcine
Experimental: The skin permeability for vehicles containing eugenol and EDChA were assessed in a Franz diffusion cell consisted of a 2 ml donor chamber and an 8 ml acceptor chamber. The permeation area was 1 cm^2. The acceptor fluid, mixed with a magnetic stirrer, was a PBS (phosphate-buffered saline, pH 7.4) solution that maintained the physiological pH. […] Before starting the test, Franz diffusion cells were allowed to equilibrate at 37°C for 15 min. Porcine skin was used for the study due to its similar permeability properties to human skin. The skin was from a local slaughterhouse. A fresh portion of skin from the abdomen was washed several times with a solution of PBS. Skin with a thickness of 0.5 mm was cut with a dermatome, and then it was wrapped in aluminum foil and frozen at –20°C for a maximum of 3 months. […] Before the study, the skin was thawed at room temperature for about 30 min, and then it was soaked in a PBS solution for 15 min to hydrate it. In the next stage, the skin was mounted in Franz diffusion cells. The integrity of skin was checked 1 h after its installation in the Franz diffusion chamber (SES GmbH Analyze Systeme, Germany). […] To make the measurement, the tips of the probes were immersed in the donor and acceptor chambers filled with the PBS solution.
Preparations (1.000 g) containing one of the test compound (eugenol and EDChA) were placed in the donor chamber. All donor chambers were closed with a plastic stopper to prevent excessive evaporation of the vehicle. […] The samples were analyzed by high-performance liquid chromatography (HPLC).
(§1) The permeation rate was determined based on the amount of permeated compound over a given period (μg/cm^2/h).
(§2) The samples were analyzed by high-performance liquid chromatography (HPLC) with a UV detector (Knauer, Berlin, Germany). […] The flow rate of the mobile phase, consisted of acetonitrile, water, and MeOH (28:64:8, by vol), was 1 ml/min. Twenty microliters of each analyzed sample was injected onto the column.

[5] = Total polyphenole content by Folin-Ciocalteu method on acceptor fluid and solution after skin extraction
Experimental: The antioxidant activity of acceptor fluid taken after 24 h of permeation, and solutions obtained after skin extraction performed after the experiment was determined using the DPPH (according to the procedure described above) ([Brand-Williams et al., 1995]; [Makuch et al., 2020]), ABTS ([Makuch et al., 2020]) and Folin–Ciocalteau ([Nowak et al., 2019]; [Makuch et al., 2020]) methods. The ABTS assay is based on the generation of a blue/green ABTS radical, which is applicable to both hydrophilic and lipophilic antioxidant systems; whereas DPPH assay uses a radical dissolved in organic media and is, therefore, applicable to hydrophobic systems ([Molyneux 2004]). To determine the total content of phenolic compounds in the tested samples the method based on the use of the Folin–Ciocalteu reagent in alkaline medium was applied. The reaction is based on the spectrophotometrically recorded color change of the test solution from yellow to blue. Folin–Ciocalteu reagent was diluted tenfold with water in a dark bottle and incubated at room temperature for 60 min. […] The cuvette was sealed with a stopper and incubated for 15 min at room temperature. […]

[6] = Skin accumulation (extraction of skin after the permeation experiment); format: in vitro ADME, porcine; details: after 24 h experiment
Experimental: After completion of permeation experiment, the skin was extracted to estimate the residual amount of tested active ingredients accumulated in it. […] Extraction was carried out as follows: after the experiment was completed, the Franz diffusion chambers were dismantled, while the skin surface was washed three times with an aqueous solution of sodium lauryl sulfate (at a concentration of 0.5% w/w) to rinse of the excess of vehicle containing test compound. A patch (1 cm^2 diffusion surface) was cut from the skin prepared in this way, dried at room temperature, and then weighed and cut into smaller pieces. […] The obtained extracts were then centrifuged at 3,500 rpm for 5 min. The supernatant was analyzed by HPLC to determine the content of active ingredients, while tests on the antioxidant activity of the obtained extracts was evaluated using the DPPH, Folin–Ciocalteau, and ABTS methods.
as §1, §2

SMILES | log p [1] | IC50 [2] [µM] | IC50 [3] [µM] | Cumulative mass of substance after 24 h of permeation test ([4]; pig, 24 h, 1 % w/w, pH 7.4) [µg] | Mass of substance in the acceptor fluid after 24 h of permeation ([4]; pig, 24 h, 1 % w/w, pH 7.4) [µg] | Total polyphenole content (folin-ciocalteu method), solution after skin extraction ([5]; cream vehicles) [mmol GA/dm^3] | Cumulative mass of substance after 24 h of permeation test ([4]; cream vehicles, 1.000% w/w active, acceptor PBS pH 7.4, 1 cm^2) [µg] | Mass of substance in the acceptor fluid after 24 h of permeation ([4]; gel vehicles, 1.000% w/w active, acceptor PBS pH 7.4, 1 cm^2) [µg] | Antioxidant activity (Folin-Ciocalteu method) of solution obtained after skin extraction ([5]; cream vehicle) [mmol GA/dm^3] | Skin accumulation of substance ([6]; cream vehicles) [µg/cm^2 skin] | Skin accumulation of substance ([6]; gel vehicles) [µg/cm^2 skin]
C=CCc1ccc(O)c(OC)c1 [Eugenol, 4-allyl-2-methoxyphenol] | 2.20 ± 0.001 | 6.1 | 50.4 | 20.5 ± 0.8 | 31.3 ± 4.3 | 0.2 ± 0.1 |  |  |  |  | 
C=CCc1ccc(OC(=O)C(Cl)Cl)c(OC)c1 [EDChA, eugenyl dichloroacetate] |  | 4280 |  |  |  |  | 19.6 ± 1.8 | 28.8 ± 2.6 | 0.3 ± 0.1 | 173.9 ± 8.4 | 255.9 ± 20.1
